Measurements as given in a melting point compilation (Tetko et al.; mined from patent text by program, amines drawn as free bases though some values may be those of a salt).

| Structure (SMILES) | melting point [°C] |
| --- | --- |
| COc1ccc(C(O)c2cccc(OCc3ccc4ccccc4n3)c2)cc1 (centres undefined) | 70 to 80 |
| COc1cc(C2Oc3cc(C4Oc5cc(O)cc(O)c5C(=O)C4O)ccc3OC2CO)ccc1O (centres undefined) | 167 to 180 |
| COC(=O)Cc1cc(Oc2nn(C)c(C(F)(F)F)c2Cl)ccc1[N+](=O)[O-] | 112 to 115 |
| COc1ccc2c(c1)c(CC(=O)OCC(=O)O)c(C)n2C(=O)c1ccc(C(F)(F)F)cc1 | 166 to 167 |
| O=C1NCC(Cc2ccc(F)cc2)O1 (centres undefined) | 120 to 121 |
| CON=Cc1cc(-n2c(=O)cc(C(F)(F)F)[nH]c2=O)c(F)cc1Cl | 176 to 177 |
| CC(=O)Oc1cnccc1CCCOc1cccnc1Oc1cccc(Br)c1 | 110 to 112 |
| CCCCc1oc2ccccc2c1Cc1ccc(OS(=O)(=O)c2ccc(C(=O)O)c(O)c2)cc1 | 135 to 138 |
| CC1(C)CC(=O)Nc2cc3nc(-c4ccc(C(N)=O)cc4)[nH]c3cc21 | 317 to 319 |
| CCCCCN(CCC12CC3CC(CC(C3)C1)C2)C(=O)NCCc1ccncc1 | 107 to 118 |
| CCOC(=O)c1c(S)nc(-c2ccccc2)c([N+](=O)[O-])c1C(=O)OCC | 129 to 132 |
| Cn1nc2c(-c3ccc(Cl)cc3Cl)cccc2c1CCc1ncn[nH]1 | 92 to 116 |
| O=C(CCCNc1c(C(=O)O)[nH]c2cc(Cl)cc(Cl)c12)c1ccccc1 | 254 to 256 |
| N[C@@H](Cc1ccc(C(F)(F)F)cc1)[C@H](O)c1ccc(F)cc1F (racemic) | 99 to 100 |
| CCC(=O)c1cnc(C(=O)CC)cn1 | 112 |
| O=C(O)c1ccc(Cn2cc(C3c4ccccc4C=Cc4ccccc43)c(=S)[nH]c2=O)o1 | 178 to 180 |
| Cn1cc(-c2ccccc2)c(=O)c(-c2ccc(C(F)(F)F)cc2)c1 | 164 to 166 |
| COc1c2c(c(OC)c(OC)c1OC)CCC(CCn1ccccc1=O)CC2 | 84 to 87 |
| O=C1SC[C@H]2[C@@H]1N(Cc1ccccc1)C(=O)N2Cc1ccccc1 (relative stereo) | 118 to 119 |
| CCCNC1Cc2ccc(C3=NNC(=O)CC3)cc2C1 (centres undefined) | 137 to 138 |
| COC1OC(CO)C(OCc2ccccc2)C(O)C1OCc1ccccc1 (centres undefined) | 104 to 105 |
| CCOC(=O)COc1ccc(SCc2ccnc3[nH]c(-c4ccc(C(F)(F)F)cc4)nc23)cc1C | 239 to 241 |
| COc1ccc(S(=O)(=O)N2C(=O)C(c3ccccc3OC)(N3C[C@H](OC)C[C@H]3C(=O)N(C)C)c3cc(Cl)ccc32)c(OC)c1 (some centres undefined) | 189 to 191 |

| Structure (SMILES) | melting point [°C] |
| --- | --- |
| Cc1ccc(OC2SCC(O)C(O)C2O)c(F)n1 (centres undefined) | 167 to 170 |
| O=S(=O)(Nc1ccccc1)c1ccc(NC(=S)Nc2ccccc2)cc1 | 160 to 162 |
| CN(C)C(=O)Nc1ccc2c(c1)C(c1ccccc1F)=NCC(=O)N2C | 97 |
| COc1cc2cncnc2cc1OC | 235 to 237 |
| Cc1ccc2c(c1)C(CCCCOS(C)(=O)=O)C(=O)N2 (centres undefined) | 89 to 90 |
| CC(C)NC(=O)c1c[nH]c2ncc(-c3nn(CCCN(C)C)c4cc(Cl)cc(F)c34)nc12 | 249 to 255 |
| CCOC(=O)C1=C[C@@H](OC(CC)CC)[C@@H](NC(C)=O)[C@H](O)[C@@H]1O | 154 |
| COc1cc(Nc2c(C#N)cnc3cc4c(cc23)ncn4CCN2CCOCC2)c(C)cc1Cl | 246 to 248 |
| O=C(O)CCCCCc1ccc2ccccc2n1 | 105 to 108 |
| COc1cc(OC)cc(-c2nc[nH]c2-c2ccc(OC)c(N)c2O)c1 | 132 to 134 |
| N#Cc1cc(F)cc(-c2cc([N+](=O)[O-])c3c(c2)C2(CCCCC2)C(=O)N3)c1 | 196 |
| N#CCc1cccn1Cc1ccccc1 | 62 to 63 |
| O=Cc1c(Cl)nc(-c2ccccc2)n1Cc1ccc([N+](=O)[O-])cc1 | 150 to 152 |
| O=c1nc(-c2ccccc2F)c2c3c(sc2[nH]1)CCCC3 | 274 to 277 |
| CN1C(=O)CCCc2cc(Nc3ncc(Cl)c(Nc4ccc(N5CCCCC5)cc4C(N)=O)n3)ccc21 | 295 to 297 |
| CCN1CCN(C(=O)c2cc(N)cc(C(F)(F)F)c2)CC1 | 104 |
| Cc1c(S(C)(=O)=O)ccc(C(=O)C2SCCCC2=O)c1Cl (centres undefined) | 142 to 144 |
| Cc1cc(C(=O)N2Cc3cccn3Cc3ccccc32)ccc1C1=CC(=O)CCC1 | 176 to 177 |
| CCOC(=O)C(=O)c1csc(NC(=O)Nc2ccccc2F)n1 | 219 to 225 |
| COc1cc(-c2[nH]c3ccc(OCc4ccccc4)cc3c2C)ccc1OCc1ccccc1 | 155 to 158 |
| CCOc1cc2c(c3c1OC(C)(C)C3)C(c1ccccc1)=NC(C)(CN1C(=O)c3ccccc3C1=O)C2 (centres undefined) | 187 to 189 |
| CCCCCCCCCCCCCCOc1ccccc1NC(=O)c1cc(Sc2nnnn2-c2cccc(C(=O)O)c2)c2ccccc2c1O | 136 to 138 |
| Cc1c(C(=O)N[C@H](C)[C@](O)(Cn2cncn2)c2ccc(F)cc2F)cnn1-c1ccc(C(F)(F)F)cc1 | 180 to 181 |

| Structure (SMILES) | melting point [°C] |
| --- | --- |
| Cc1c(C)c(S(=O)(=O)C[N+](=O)[O-])c(C)c2c1OC(C)(C)CC2 | 98 to 100 |
| COc1ccc(C(=O)Nc2c(Cl)cncc2Cl)c2c1OC(C)C2C(=O)C1NCCc2ccccc21 (centres undefined) | 211 to 213 |
| CCc1noc(-c2cn(-c3cnccn3)cn2)n1 | 166 to 167 |
| Cn1nc(C(F)(F)F)c(CS(=O)(=O)C2=NOC(C)(C)C2)c1Cl | 115 to 116 |
| COC(=S)c1cc(N)cc(N)c1C | 102 to 104 |
| COc1ccc2c(c1)CCC1C2CCC2(C)C(=O)CC(C)C12 (centres undefined) | 127 to 129 |
| CCCc1c(OCc2cccc(C(=O)NCCCc3cccnc3)c2)ccc(C(C)=O)c1O | 110 to 112 |
| COc1ccc(C(=O)c2nccs2)cc1OCc1ccc2ccccc2c1 | 80 |
| OC(CCN1CC=C(c2ccccc2)CC1)c1cccc2ccccc12 (centres undefined) | 93 to 94 |
| C[C@@H]1NC(=O)OC1(C)C | 60 |
| COC(=O)[C@@H](Cc1ccccc1)Nc1cc(-c2ccc(OCc3ccccc3)cc2)ncn1 | 150 |
| CCOC(=O)c1ccc(NCc2nccnc2OCc2ccccc2)cc1 | 112 |
| O=C1c2ccccc2C(=O)N1CC(=O)N1c2ccccc2N(Cc2cccc3ccccc23)C(=O)[C@H]2CCC[C@H]21 (relative stereo) | 266 to 270 |
| CCOC(=O)C1=C(COCCNS(N)(=O)=O)NC(C)=C(C(=O)OC)C1c1ccccc1Cl (centres undefined) | 150 to 152 |
| O=C(O)COCc1nn(Cc2ccc(F)cc2)c2ccccc12 | 135 to 136 |
| CC(C)(O)[C@H]1CC[C@H](Cc2cn(-c3ccc(F)cc3)c3ncccc3c2=O)CC1 | 208 to 209 |
| CCOC(=O)C1=C2CC=CC=C2N(C(=O)OCC)CCC1 | 60 |
| CC(C)NCC(O)COc1cccc(C2=NNC(=O)CC2)c1 (centres undefined) | 137 to 141 |
| O=C(O)Cn1c(-c2cccc(C(F)(F)F)c2)nc2cccnc21 | 240 to 242 |
| COc1c2c(c(OC)c(OC)c1OC)CCC(CCO)CC2 | 64 to 66 |
| O=C1Nc2ccc(C3CC4CCC3C4)cc2C12OCCO2 (centres undefined) | 159 to 161 |
| O=C1C(=Cn2ccnc2)C(c2ccccc2)c2ccccc21 (centres undefined) | 204 to 206 |
| CCOC(=O)C1=C(C)Nc2cc(=O)[nH]n2C1c1cccc(Cl)c1Cl (centres undefined) | 213 to 218 |
